{"source": "paper PMC10464297", "about": "“Reevaluation of bromodomain ligands targeting BAZ2A” (Protein Science : A Publication of the Protein Society, 2023)", "key": {"melatonin receptor": {"system": "melatonin receptor", "design": "method as in https://www.thesgc.org/chemical-probes/GSK2801", "conditions": "panel of receptors, channels and transporters; ref https://www.thesgc.org/chemical-probes/GSK2801; cited from earlier work"}, "TAF1L": {"target": "TAF1L", "conditions": "ref Chen et al., [2016]; read-out: K D TAF1L; cited from earlier work"}, "BRD9": {"target": "BRD9", "conditions": "ref Chen et al., [2016]; read-out: K D BRD9; cited from earlier work"}, "PC3 spheroids": {"system": "PC3 spheroids", "experiment": "Spheroid growth (3D), PC3", "type": "cell-based", "method": "(§1) Cell cultures, proliferation assay and spheroid gro wth […]\nstreptomycin and 2 m M L-glutamine. All cells were regularly tested for mycoplasma contamination. […]\nSpheroids were obtained by plating PC3 and 22Rv1 cells in low -adhesion round bottom 96 -well […]\n(§2) After seeding, the cells were centrifuged for 10 min at 1200 x g at 4°C. Spheroids were given 48 hours to form after seeding before adding the treatment or the carrier (0.1% DMSO). Medium supplemented with treatment/carrier was changed every 48 hours, for a total of 32 days for 22Rv1 and 16 days for PC3. Each spheroid was imaged in brightfield every day or every other day (after day 20), using a Leica DM IL microscope […]\n(§3) equipped with a Leica DFC450C digital camera. The area of each spheroid was measured using ImageJ and the average area for each condition was calculated. The growth rate was analysed using the segmental linear regression algorithm of GraphPad Prism. The appropriateness of the model was evaluated by considering the R square values and the Replicates test (Suppl. Table 6). […]"}, "22Rv1 spheroids": {"system": "22Rv1 spheroids", "experiment": "Spheroid growth (3D), 22Rv1", "type": "cell-based", "method": "(§4) Cell cultures, proliferation assay and spheroid gro wth\nPC3 and 22Rv1 cells were cultured in RPMI 1640 medium containing 10% FBS, 1% penicillin-streptomycin and 2 m M L-glutamine. All cells were regularly tested for mycoplasma contamination. […]\nas §2, with “Spheroids were obtained by plating PC3 and 22Rv1 cells in low -adhesion round bottom 96 -well plates. For 22Rv1, 2500 cells/well were seeded in 200 µl RPMI 1640; for PC3, 250 cells/well were seeded in 200 µl RPMI 1640 supplemented with 1.5% Matrigel. After” for “After”\nas §3"}, "BAZ2A": {"system": "BAZ2A", "conditions": "ref Chen et al., [2016]; cited from earlier work"}, "TNBC cells": {"system": "TNBC cells", "design": "method as in Bevill et al., [2019]", "conditions": "single agent; ref Bevill et al., [2019]; cited from earlier work"}, "[1]": {"system": "PC3 (AR‐negative) PCa cells", "experiment": "2D proliferation assay (resazurin), PC3", "type": "cell-based", "method": "as §1\nstreptomycin and 2 m M L-glutamine. All cells were regularly tested for mycoplasma contamination.\nFor the proliferation assay, cells were counted with a hemocytometer and seeded in triplicates in 96-well plates (4 .5x10^3 cells/well for 22Rv1 and 2.0x103 for PC3) and let adhere overnight at 37°C, […]\n(§5) transfected with siRNA for BAZ2A , RLUC or KIF11, as detailed below. The cells were incubated for 1, 3, 6 (PC3) and 9 days (22Rv1) and the medium containing either the carrier or the inhibitors was replaced every 3 day s. Cell proliferation and viability were determined at day 1, 3, 6 and 9 by adding 10% resazurin sodium salt solution (0. 03 mg/ml powder from Sigma -Aldrich) directly into each well and incubating them for 4h at 37°C, 5% CO 2. The absorbance at 570/600 nm was measured using a Varioskan plate reader. The reduction of the resazur in sodium salt was calculated using the formula: (Abs x – Abs 0. 1%DMSO day1)/(Abs 0. 1%DMSO day9 - Abs 0. 1%DMSO day1). The growth rate was analysed using the linear regression algorithm of GraphPad Prism. […]"}, "[2]": {"system": "22Rv1 (AR‐positive) PCa cells", "experiment": "2D proliferation assay (resazurin), 22Rv1", "type": "cell-based", "method": "as §4\nPC3 and 22Rv1 cells were cultured in RPMI 1640 medium containing 10% FBS, 1% penicillin-streptomycin and 2 m M L-glutamine. All cells were regularly tested for mycoplasma contamination.\nFor the proliferation assay, cells were counted with a hemocytometer and seeded in triplicates in 96-well plates (4 .5x10^3 cells/well for 22Rv1 and 2.0x103 for PC3) and let adhere overnight at 37°C, 5% CO2. The following day, the medium was replaced with RPMI 1640 containing either the carrier […]\nas §5"}, "[3]": {"conditions": "3D setting, GSK2801 25 μM, BAZ2‐ICR 25 μM, BI9564 20 μM"}}, "note": "Entries after “also recorded” stand apart in the source; their conditions may differ.", "data": [{"smiles": "CCCOc1ccn2c(C(C)=O)cc(-c3ccccc3S(C)(=O)=O)c2c1", "note": "[GSK2801]", "values": [{"measurement": "interference with melatonin receptor", "setting": "melatonin receptor", "result": "strongly interferes"}, {"measurement": "Kd", "setting": "TAF1L", "result": 3.2, "unit": "µM"}, {"measurement": "Kd", "setting": "BRD9", "result": 1200, "unit": "nM"}, {"measurement": "effect on growth of PC3 spheroids", "setting": "PC3 spheroids; [3]", "result": "only GSK2801 is effective on PC3 cells; also recorded: slowed PC3 and 22Rv1 cellular growth"}, {"measurement": "slope2 (segmental linear regression of spheroid growth)", "setting": "PC3 spheroids; PC3 spheroids, 25 µM, after X0 = day 6", "result": 19191}, {"measurement": "slope1 (segmental linear regression of spheroid growth)", "setting": "PC3 spheroids; PC3 spheroids, 25 µM, before X0 = day 6", "result": 5023}, {"measurement": "effect on growth of 22Rv1 spheroids", "setting": "22Rv1 spheroids; [3]", "result": "similarly affect the growth of 22Rv1 cells; also recorded: slowed PC3 and 22Rv1 cellular growth"}, {"measurement": "slope2 (segmental linear regression of spheroid growth)", "setting": "22Rv1 spheroids; 22Rv1 spheroids, 25 µM, after X0 = day 9", "result": 13213}, {"measurement": "slope1 (segmental linear regression of spheroid growth)", "setting": "22Rv1 spheroids; 22Rv1 spheroids, 25 µM, before X0 = day 9", "result": 13070}, {"measurement": "IC50", "setting": "BAZ2A", "result": "[…]"}, {"measurement": "effect on TNBC cells", "setting": "TNBC cells", "result": "did not affect TNBC cells"}, {"measurement": "effect on 2D growth of PC3 cells", "setting": "[1]; 2D‐cell culture, PC3", "result": "significantly reduced growth rate at the highest concentrations tested; also recorded: reduces 2D growth"}, {"measurement": "effect on viability of PC3 cells", "setting": "[1]; 2D‐cell culture, PC3", "result": "without affecting viability"}, {"measurement": "Slope (best-fit, linear regression of growth curve)", "setting": "[1]; PC3, 0.5 µM", "result": "0,1514"}, {"measurement": "Slope (best-fit, linear regression of growth curve)", "setting": "[1]; PC3, 2.5 µM", "result": "0,1455"}, {"measurement": "Slope (best-fit, linear regression of growth curve)", "setting": "[1]; PC3, 5 µM", "result": "0,1396"}, {"measurement": "Slope (best-fit, linear regression of growth curve)", "setting": "[1]; PC3, 10 µM", "result": "0,1068"}, {"measurement": "Slope (best-fit, linear regression of growth curve)", "setting": "[1]; PC3, 25 µM", "result": "0,08390"}, {"measurement": "effect on 2D growth of 22Rv1 cells", "setting": "[2]; 2D‐cell culture, 22Rv1", "result": "significantly reduced growth rate at the highest concentrations tested; also recorded: reduces 2D growth"}, {"measurement": "effect on viability of 22Rv1 cells", "setting": "[2]; 2D‐cell culture, 22Rv1", "result": "without affecting viability"}, {"measurement": "Slope (best-fit, linear regression of growth curve)", "setting": "[2]; 22Rv1, 0.5 µM", "result": "0,1090"}]}]}
